Test results published in article PMC11067372, “Evaluation of the antiplasmodial efficacy of synthetic 2,5-diphenyloxazole analogs of compounds naturally derived from Oxytropis lanata” (International Journal for Parasitology: Drugs and Drug …, 2024).
Read-outs that look alike come from different tables or passages of the source.

Assays:
P. falciparum 3D7 = test: In vitro inhibition of P. falciparum 3D7 (SYBR Green I-based fluorescence assay); format: cell-based, Plasmodium falciparum; parameters: logIC50: unit not given here; details: for IC50: Plasmodium falciparum; for logIC50: base-10 log-transformed IC50 against P. falciparum 3D7
Procedure: (§1) The cultures were maintained in an incubator under specific conditions: 37 °C under 5% CO2 and 5% O2.
(§2) The D-sorbitol method (CAS: 50-70-4, Wako, Osaka, Japan) was employed to synchronize parasites, resulting in the attainment of ≥90% ring-stage parasites. These synchronized parasites were then utilized for the experiments within a 2-h window. The assay was performed as follows. First, 50 μL of synchronized parasites with 0.5% parasitemia and 2% hematocrit were added to individual wells of a 96-well plate. Then, 50 μL of the test compounds was introduced to each well. […] Wells containing only test compounds and erythrocytes were included for background correction. […] After the designated incubation time, 100 μL of lysis buffer containing 0.02% (v/v) SYBR Green I was added to each well, the contents of the well were mixed by pipetting, and the plate was incubated in the dark at room temperature for 2 h. […] This assay was repeated four times at each concentration, and the resulting inhibitory values represent the average from three independent trials.
(§3) The IC50 or CC50 values were determined from three independent experiments by plotting the logarithmic concentration of the compound against the percent parasite inhibition or cell growth inhibition, respectively. Nonlinear regression analysis was conducted using GraphPad Prism 10 (GraphPad Software, Inc., La Jolla, CA, USA). Comparisons between groups were evaluated using either one-way or two-way ANOVA followed by Tukey's or Fisher's multiple comparisons tests. […] The meaning of each symbol is specified in the corresponding figure legend alongside the name of the employed test.

[1] = In vitro toxicity to human cells (cell viability assay); format: cell-based; details: human foreskin fibroblasts (HFFs), average ± SD, three independent experiments
Procedure: HFF cells are selected for cytotoxicity testing in this study, providing a physiologically relevant model for the evaluation of drug interactions with human cells. […] This designation makes them a suitable model for the investigation of cellular processes and their sensitivity to toxic substances, which is crucial for the early identification of potential adverse effects of drugs during the development process.
The IC50 or CC50 values were determined from three independent experiments by plotting the logarithmic concentration of the compound against the percent parasite inhibition or cell growth inhibition, respectively. Nonlinear regression analysis was conducted using GraphPad Prism 10 (GraphPad Software, Inc., La Jolla, CA, USA). Comparisons between groups were evaluated using either one-way or two-way ANOVA followed by Tukey's or Fisher's multiple comparisons tests. A p-value of <0.05 was considered to indicate statistical significance and is denoted by an asterisk or a symbol. The meaning of each symbol is specified in the corresponding figure legend alongside the name of the employed test.

P. falciparum K1 = test: In vitro inhibition of P. falciparum K1 (SYBR Green I-based fluorescence assay); format: cell-based; details: Plasmodium falciparum; multidrug-resistant strain K1; 72 h incubation; average ± SD, three independent experiments; read-out: IC50 P. falciparum K1
Procedure: as §1, §2, §3

[2] = Table S2, P. falciparum 3D7, value used for SAR analysis, read-out: IC50
[3] = chloroquine-sensitive strain 3D7, 72 h incubation, average ± SD, three independent experiments, read-out: IC50 P. falciparum 3D7
[4] = 3D7, Table S1, average of three independent experiments, read-out: IC50 Mean against P. falciparum 3D7

Row | SMILES | IC50 (P. falciparum 3D7; [2]) | IC50 (P. falciparum 3D7; [3]) | IC50 (P. falciparum K1) | IC50 (P. falciparum 3D7; [4]) | logIC50 (P. falciparum 3D7; Table S2) | CC50 [1]
1 | Oc1ccccc1-c1cnc(-c2cccc(O)c2O)o1 [Compound 1, 2-(2′,3′-dihydroxyphenyl)-5-(2″-hydroxyphenyl)oxazole] | 11 µM | 11 ± 2.69 µM | 6.17 ± 3.33 µM | – | 1.042 | 59.6 ± 4.84 µM
2 | CC(=O)Oc1ccccc1-c1cnc(-c2cccc(OC(C)=O)c2OC(C)=O)o1 [Compound 3] | 9.22 µM | 9.22 ± 1.68 µM | 4.7 ± 2.24 µM | – | 0.9649 | 126 ± 31.6 µM
3 | Oc1ccc(O)c(-c2ncc(-c3ccccc3O)o2)c1 [Compound 4, 2-(2′,5′-dihydroxyphenyl)-5-(2″-hydroxyphenyl)oxazole] | 6.2 µM | 6.2 ± 4.23 µM | 3.74 ± 1.47 µM | – | 0.7924 | 55.4 ± 11.7 µM
4 | Oc1ccc(O)c(-c2cnc(-c3ccccc3)o2)c1 [Compound 7, 2-phenyl-5-(2″,5″-hydroxyphenyl)oxazole] | 3.85 µM | 3.85 ± 1.87 µM | 1.65 ± 0.72 µM | – | 0.5852 | 54.1 ± 11 µM
5 | COc1ccc(OC)c(-c2cnc(-c3ccccc3)o2)c1 [Compound 8] | – | – | – | > 200 µM | 2.301 | –
6 | CC(=O)Oc1ccc(OC(C)=O)c(-c2cnc(-c3ccccc3)o2)c1 [Compound 9] | 3.38 µM | 3.38 ± 1.46 µM | 1.27 ± 0.51 µM | – | 0.5284 | 56.7 ± 18.4 µM
7 | Oc1ccc(O)c(-c2cnc(-c3cc(O)ccc3O)o2)c1 [Compound 10, 2-(2′,5′-dihydroxyphenyl)-5-(2″,5″-dihydroxyphenyl)oxazole] | 12.6 µM | 12.7 ± 7.63 µM | 4.94 ± 2.15 µM | – | 1.102 | 39.5 ± 7.45 µM
8 | CC(=O)Oc1ccc(OC(C)=O)c(-c2cnc(-c3cc(OC(C)=O)ccc3OC(C)=O)o2)c1 [Compound 12] | 10.2 µM | 10.2 ± 4.09 µM | 4.7 ± 1.69 µM | – | 1.01 | 67.8 ± 1.39 µM
9 | COc1ccccc1-c1cnc(-c2ccccc2OC)o1 [Compound 13] | – | – | – | > 200 µM | 2.301 | –
10 | COc1ccc(OC)c(-c2cnc(-c3cccc(OC)c3OC)o2)c1 [Compound 17] | – | – | – | > 200 µM | 2.301 | –
11 | COc1ccc(-c2cnc(-c3ccc(OC)cc3)o2)cc1 [Compound 20] | – | – | – | > 200 µM | 2.301 | –
12 | COc1cccc(-c2ncc(-c3ccccc3OC)o2)c1 [Compound 26] | – | – | – | > 200 µM | 2.301 | –
13 | COc1cccc(-c2ncc(-c3ccccc3C)o2)c1OC [Compound 30] | – | – | – | > 200 µM | 2.301 | –
14 | CCOc1ccccc1-c1cnc(-c2cccc(OC)c2OC)o1 [Compound 34] | – | – | – | > 200 µM | 2.301 | –
15 | COc1cccc(-c2ncc(-c3ccccc3NC(C)=O)o2)c1OC [Compound 39] | – | – | – | > 200 µM | 2.301 | –
16 | Oc1ccccc1-c1cnc(-c2cccc(O)c2O)s1 [Compound 40] | 3.95 µM | 3.95 ± 1.38 µM | 1.74 ± 0.89 µM | – | 0.597 | 46.3 ± 5.84 µM
17 | Oc1ccccc1-c1nnc(-c2cccc(O)c2O)o1 [Compound 42] | 9.53 µM | 9.53 ± 3.15 µM | 6.19 ± 2.66 µM | – | 0.9793 | 52.5 ± 13.2 µM
18 | Oc1ccccc1-c1nnc(-c2cccc(O)c2O)s1 [Compound 44] | 6.41 µM | 6.41 ± 1.16 µM | 3.91 ± 1.45 µM | – | 0.8066 | 160 ± 62.3 µM
19 | COc1ccccc1-c1nnc(-c2cccc(OC)c2OC)s1 [Compound 45] | – | – | – | > 200 µM | 2.301 | –
20 | Oc1ccccc1-c1coc(-c2cccc(O)c2O)n1 [Compound 47] | 4.63 µM | 4.63 ± 1.18 µM | 3.13 ± 1.21 µM | – | 0.6658 | 71 ± 23.1 µM

Second part, led by results:

Row | IC50 (P. falciparum 3D7; [2]) | IC50 (P. falciparum 3D7; [3]) | IC50 (P. falciparum K1) | IC50 (P. falciparum 3D7; [4]) | SMILES | logIC50 (P. falciparum 3D7; Table S2) | CC50 [1]
21 | – | – | – | > 200 µM | COc1ccccc1-c1cnc(-c2cccc(OC)c2OC)o1 [Compound 2] | 2.301 | –
22 | – | – | – | > 200 µM | COc1ccc(OC)c(-c2ncc(-c3ccccc3OC)o2)c1 [Compound 5] | 2.301 | –
23 | 13.4 µM | – | – | 13.4 µM | CC(=O)Oc1ccc(OC(C)=O)c(-c2ncc(-c3ccccc3OC(C)=O)o2)c1 [Compound 6] | 1.127 | –
24 | 15 µM | – | – | 15 µM | COc1ccc(OC)c(-c2cnc(-c3cc(OC)ccc3OC)o2)c1 [Compound 11] | 1.177 | –
25 | 62.4 µM | – | – | 62.4 µM | COc1cccc(-c2ncc(-c3ccc4ccccc4c3)o2)c1OC [Compound 14] | 1.795 | –
26 | 74.8 µM | – | – | 74.8 µM | COc1cccc(-c2cnc(-c3cccc(OC)c3OC)o2)c1 [Compound 15] | 1.874 | –
27 | – | – | – | 37.9 µM | COc1ccc(-c2cnc(-c3cccc(OC)c3OC)o2)cc1 [Compound 16] | 1.579 | –
28 | 51.1 µM | – | – | 51.1 µM | COc1cccc(-c2ncc(-c3ccc(OC)c(OC)c3OC)o2)c1OC [Compound 18] | 1.708 | –
29 | – | – | – | 46.3 µM | COc1cccc(-c2cnc(-c3cccc(OC)c3)o2)c1 [Compound 19] | 1.665 | –
30 | 19.3 µM | – | – | 19.3 µM | COc1ccc(-c2ncc(-c3ccccc3OC)o2)c(OC)c1 [Compound 21] | 1.286 | –
31 | – | – | – | 26.7 µM | COc1ccccc1-c1cnc(-c2c(OC)cccc2OC)o1 [Compound 22] | 1.426 | –
32 | 12.7 µM | – | – | 12.7 µM | COc1cccc(-c2cnc(-c3cccc(OC)c3OC)o2)c1OC [Compound 23] | 1.104 | –
33 | – | – | – | 68 µM | COc1cccc(-c2cnc(-c3ccc(OC)c(OC)c3OC)o2)c1OC [Compound 24] | 1.832 | –
34 | – | – | – | 29.9 µM | COc1cccc(-c2ncc(-c3ccccc3)o2)c1OC [Compound 25] | 1.476 | –
35 | – | – | – | 106 µM | COc1ccc(OC)c(-c2cnc(-c3ccccc3OC)o2)c1 [Compound 27] | 2.027 | –
36 | – | – | – | 125 µM | COc1cccc(-c2ncc(-c3c(OC)cccc3OC)o2)c1OC [Compound 28] | 2.096 | –
37 | 24.9 µM | – | – | 24.9 µM | COc1ccc(-c2cnc(-c3cccc(OC)c3OC)o2)c(OC)c1 [Compound 29] | 1.397 | –
38 | 18.2 µM | – | – | 18.2 µM | COCOc1ccccc1-c1cnc(-c2cccc(OC)c2OC)o1 [Compound 33] | 1.26 | –
39 | 27.7 µM | – | – | 27.7 µM | CCCOc1ccccc1-c1cnc(-c2cccc(OC)c2OC)o1 [Compound 35] | 1.442 | –
40 | 39.6 µM | – | – | 39.6 µM | COc1cccc(-c2ncc(-c3ccccc3[N+](=O)[O-])o2)c1OC [Compound 36] | 1.598 | –
41 | – | – | – | 36.6 µM | COc1cccc(-c2ncc(-c3ccccc3N)o2)c1OC [Compound 37] | 1.564 | –
42 | 54.2 µM | – | – | 54.2 µM | COc1cccc(-c2ncc(-c3ccccc3N(C)C)o2)c1OC [Compound 38] | 1.734 | –
43 | – | – | – | 15.5 µM | COc1ccccc1-c1cnc(-c2cccc(OC)c2OC)s1 [Compound 41] | 1.189 | –
44 | 16.9 µM | – | – | 16.9 µM | COc1ccccc1-c1nnc(-c2cccc(OC)c2OC)o1 [Compound 43] | 1.228 | –
45 | – | – | – | 44.7 µM | COc1ccccc1-c1coc(-c2cccc(OC)c2OC)n1 [Compound 46] | 1.65 | –
